The values below come from the PolyMetriX glass transition set.

With `*/C(C)=C(/*)[Si](C)(C)C[Si](C)(C)C` (repeat unit), the glass transition temperature came out at 200.00 °C.
Next, `*/C=C/CC(C*)(C(=O)OC12CC3CC(CC(C3)C1)C2)C(=O)OC12CC3CC(CC(C3)C1)C2` (repeat unit): 34.00 °C; `*/C=C/CCCC(Cl)CCC*` (repeat unit): -63.00 °C.
In the case of `*C(=O)NCCNC(=O)c1ncn(C)c1*` (repeat unit) it was 189.00 °C; in that of `*C/C=C/C[Si](*)(C)CCCOc1ccccc1` (repeat unit), -30.00 °C.
Next, `*C/C=C/C[Si](*)(C)c1ccccc1` (repeat unit): -1.00 °C.
With `*CC(C)CCC(C)CNC(=O)c1cc(C(=O)N*)cc(C(C)(C)C)c1` (repeat unit), the glass transition temperature turned out to be 149.00 °C.
Consider `*CC(CCCCCCCCCCCCCCCC)C1C(=O)N(CCCCCCCCCCCC)C(=O)C1*` (repeat unit), for which the glass transition temperature was 30.00 °C.
The molecule `*CC(OC)C1C(=O)OC(=O)C1*` (repeat unit) gave a glass transition temperature of 153.50 °C.
In the case of `*CC/C=C/C[Si](*)(C)c1ccccc1` (repeat unit) it was -14.90 °C; in that of `*CC1CC(*)C(OC(=O)CCCCCCCCCCOc2ccc(-c3ccc(C#N)cc3)cc2)C1OC(=O)CCCCCCCCCCOc1ccc(-c2ccc(C#N)cc2)cc1` (repeat unit), 14.50 °C.
Next, `*CC1CCC(COC(=O)CCC(=O)O*)CC1` (repeat unit): -1.00 °C.
Next, `*CC1CCCC(CNC(=O)CCCCC(=O)N*)C1` (repeat unit): 107.00 °C.
Molecule `*CCC([2H])C(*)([2H])C` (repeat unit) had a glass transition temperature of -47.50 °C.
In the case of `*CCC(c1ccccc1)[Si](*)(C)C` (repeat unit) it was 27.00 °C; in that of `*CCC1C(=O)N(CCCC)C(=O)C1*` (repeat unit), 67.90 °C.
Next, `*CCC1C(=O)N(CCCCCCCCCCCC)C(=O)C1*` (repeat unit): 55.40 °C.
Next, `*CCC1C(=O)N(CCCCCCCCCCCCCCCC)C(=O)C1*` (repeat unit): 65.60 °C.
Regarding `*CCC1C(=O)N(c2ccc(N(C)C)cc2)C(=O)C1*` (repeat unit), the glass transition temperature stood at 195.00 °C.
Regarding `*CCC1CC(*)C2CCCC12` (repeat unit), the glass transition temperature was 101.00 °C.
Molecule `*CCC1C[N+](C)(C)CC1*` (repeat unit) displayed a glass transition temperature of -6.70 °C.
The molecule `*CCCC(*)(C)C(=O)O` (repeat unit) displayed a glass transition temperature of 132.00 °C.
Next, `*CCCC(*)(C)CC` (repeat unit): -23.00 °C; `*CCCC(*)C` (repeat unit): -52.60 °C.
As to `*CCCC1(CCCNC(=O)CCCCC(=O)N*)c2ccccc2-c2ccccc21` (repeat unit), the glass transition temperature turned out to be 120.00 °C.
In the case of `*CCCCCCCCCCCCNC(=O)CCP(C)(=O)CCC(=O)N*` (repeat unit) it was 44.00 °C; in that of `*CCCCCCCCCCNC(=O)CCP(C)(=O)CCC(=O)N*` (repeat unit), 45.50 °C.
Next, `*CCCCCCCCCNC(=O)CCCCC(=O)N*` (repeat unit): 68.00 °C.
Next, `*CCCCCCCCCOC(=O)CCC(=O)O*` (repeat unit): 31.00 °C.
Molecule `*CCCCCCNC(=O)CCC(C)(C)c1ccc(C(C)(C)CCC(=O)N*)cc1` (repeat unit) came in with a glass transition temperature of 93.2 °C.
Next, `*CCCCCCNC(=O)CCC(C)CC(=O)N*` (repeat unit): 17.00 °C.
The molecule `*CCCCCCNC(=O)CCC1(CCC(=O)N*)c2ccccc2-c2ccccc21` (repeat unit) displayed a glass transition temperature of 122.00 °C.
Molecule `*CCCCCCNC(=O)c1cc(NC(=O)c2ccc(NC(=O)C(CC(C)C)N3C(=O)c4ccccc4C3=O)cc2)cc(C(=O)N*)c1` (repeat unit) had a glass transition temperature of 200.00 °C.
As for `*CCCCCCOC(=O)CCCCCNC(=O)CCCCC(=O)NCCCCCC(=O)O*` (repeat unit), the glass transition temperature was -7.00 °C.
Next, `*CCCCCNC(=O)C(OC)C(OC)C(=O)N*` (repeat unit): 113.00 °C.
Next, `*CCCNC(=O)C(OC)C(OC)C(=O)N*` (repeat unit): 123.00 °C.
In the case of `*CCCOC(=O)CCC(=O)O*` (repeat unit), the glass transition temperature was -34.70 °C.
On to `*CCCOC(=O)CCCC(=O)O*` (repeat unit), for which the glass transition temperature is -33.00 °C.
In turn, `*CCOC(=O)CCC(=O)OCCOC(=O)c1ccc(C(=O)O*)cc1` (repeat unit) had a glass transition temperature of 24.00 °C.
Next, `*NC(C)CCC(C)(C)CCCNC(=O)c1ccc(C(*)=O)cc1` (repeat unit): 150.00 °C; `*NC1CCC(CC(C)(C)NC(=O)CCCCC(*)=O)CC1` (repeat unit): 80.00 °C; `*NNC(=O)c1ccc(C(*)=O)cc1OCCCCC` (repeat unit): 234.00 °C.
In the case of `*Nc1cc(NC(=O)c2cc(OCCCS(=O)(=O)c3ccc(/N=N/c4ccc(N(C)C)cc4)cc3)cc(C(*)=O)c2)cc(C(=O)OCCCN(C)c2ccc(/N=N/c3ccc(S(C)(=O)=O)cc3)cc2)c1` (repeat unit) it was 166.00 °C; in that of `*O[Si](C)(C)CCC/N=C1C=C/C(=N/CCC[Si](*)(C)C)c2c(O)ccc(O)c2\1` (repeat unit), 32.90 °C; in that of `*O[Si](C)(C)CCCC(=O)Oc1ccc(/C=N/c2ccc(Cc3ccc(/N=C/c4ccc(OC(=O)CCC[Si](*)(C)C)cc4)cc3)cc2)cc1` (repeat unit), 68.00 °C.
For the molecule `*O[Si](C)(CCC(F)(F)F)CCC(F)(F)C(F)(F)C(F)(F)C(F)(F)C(F)(F)C(F)(F)C(F)(F)C(F)(F)C(F)(F)C(F)(F)CC[Si](*)(C)CCC(F)(F)F` (repeat unit), the glass transition temperature was -11.00 °C.
In the case of `*O[Si](C)(CCC(F)(F)F)CCC(F)(F)C(F)(F)C(F)(F)C(F)(F)CC[Si](*)(C)CCC(F)(F)F` (repeat unit) it was -25.00 °C; in that of `*O[Si](C)(CCC(F)(F)F)CCC(F)(F)C(F)(F)CC[Si](*)(C)CCC(F)(F)F` (repeat unit), -27.00 °C.
In the case of `*Oc1ccc(C2(c3ccc(OC(=O)CCC(*)=O)cc3)c3ccccc3-c3ccccc32)cc1` (repeat unit) it was 234.00 °C; in that of `*Oc1ccc(CC(NC(=O)CCc2ccc(OC(=O)CCC(C)CC(*)=O)cc2)C(=O)OCc2ccccc2)cc1` (repeat unit), 55.00 °C.
In the case of `*Oc1ccccc1C(=O)OC(=O)c1ccccc1OC(=O)CCCC(*)=O` (repeat unit) it was 50.00 °C.
Turning to `*c1ccc2c(c1)C(=O)N(c1cc(C(=O)Nc3c(C)cc(-c4cc(C)c(NC(=O)c5ccc(C)c(N6C(=O)c7ccc(C(*)(C(F)(F)F)C(F)(F)F)cc7C6=O)c5)c(C)c4)cc3C)ccc1C)C2=O` (repeat unit), the glass transition temperature stood at 250.00 °C.
